Laboratory results as given in US20020049223A1, “Quinoline and naphthyridine carboxylic acid antibacterials” (priority 1999, published 2002).

How the values were obtained:
[1] = test system: Moraxella catarrahalis 2604; experiment: Assay A: in vitro antibacterial activity, agar dilution MIC; format: cell-based; conditions: Table 1, Assay A, BHI agar, 35-37° C., about 20 to 24 hours; code C = Moraxella catarrahalis 2604; unit assumed
Method: (§1) Assay A. Determination of Biological Activity In Vitro Assay of Antibacterial Activity
(§2) Representative compounds of the invention were assayed in vitro for antibacterial activity. Twelve petri dishes containing successive aqueous dilutions of the test compound mixed with sterilized Brain Heart Infusion (BHI) agar (Difco 0418-01-5) (10 mL) were prepared. Each plate was inoculated with 1:100 (or 1:10 for slow-growing strains, such as Micrococcus and Streptococcus) dilutions of up to 32 different microorganisms using a Steers replicator block. The inoculated plates were incubated at 35-37° C. for about 20 to about 24 hours. In addition, a control plate with BHI agar and no test compound was prepared and incubated at the beginning and end of each test.
(§3) An additional plate containing a compound having known susceptibility patterns for the organisms being tested and belonging to the same antibiotic class as the test compound was also prepared and incubated as a further control and to provide test-to-test comparability. Ciprofloxacin was used for this purpose.
(§4) After incubation, each plate was visually inspected. The minimum inhibitory concentration (MIC) was defined as the lowest concentration of drug yielding no growth, a slight haze, or sparsely isolated colonies on the inoculum spot as compared to the growth control.

[2] = test system: Staphylococcus aureus ATCC 6538P; experiment: as above; format: cell-based; conditions: Table 1, Assay A, BHI agar, 35-37° C., about 20 to 24 hours; code A = Staphylococcus aureus ATCC 6538P; unit assumed
Method: as §1, §2, §3, §4

[3] = test system: Haemophilus influenzae DILL AMP R; experiment: as above; format: cell-based; conditions: Table 1, Assay A, BHI agar, 35-37° C., about 20 to 24 hours; code E = Haemophilus influenzae DILL AMP R; unit assumed
Method: as §1, §2, §3, §4

[4] = test system: Streptococcus pneumoniae ATCC 6303; experiment: as above; format: cell-based; conditions: Table 1, Assay A, BHI agar, 35-37° C., about 20 to 24 hours; code F = Streptococcus pneumoniae ATCC 6303; unit assumed
Method: as §1, §2, §3, §4

[5] = test system: Enterococcus faecalis PIU 1967; experiment: as above; format: cell-based; conditions: Table 1, Assay A, BHI agar, 35-37° C., about 20 to 24 hours; code B = Enterococcus faecalis PIU 1967; unit assumed
Method: as §1, §2, §3, §4

Escherichia coli JUHL = experiment: as above; format: cell-based; conditions: Table 1, Assay A, BHI agar, 35-37° C., about 20 to 24 hours; code D = Escherichia coli JUHL; unit assumed
Method: as §1, §2, §3, §4

Row | melting point | Antibacterial Activity (MIC's), C [1] | Antibacterial Activity (MIC's), A [2] | Antibacterial Activity (MIC's), E [3] | Antibacterial Activity (MIC's), F [4] | Antibacterial Activity (MIC's), B [5] | Antibacterial Activity (MIC's), D (Escherichia coli JUHL) | SMILES
1 | 176 to 180 °C (dec.) | 0.78 µg/mL | 0.2 µg/mL | 0.25 µg/mL | 1 µg/mL | 0.78 µg/mL | 0.78 µg/mL | Br.CC1NCCc2sc(-c3ccc4c(=O)c(C(=O)O)cn(C5CC5)c4c3OC(F)F)cc21 (centres unmarked) [Example 20, 1-cyclopropyl-8-(difluoromethoxy)-7-(4-methyl-4,5,6,7-tetrahydrothieno[3,2-c]pyridin-2-yl)-4-oxo-1,4-dihydro-3-quinolinecarboxylic acid hydrobromide]
2 | 180 °C (dec.) | 0.2 µg/mL | 0.05 µg/mL | 0.12 µg/mL | 0.5 µg/mL | 0.2 µg/mL | 0.2 µg/mL | COc1c(-c2cc3c(s2)CCNC3)ccc2c(=O)c(C(=O)O)cn(C3CC3)c12.Cl [Example 2, 1-cyclopropyl-8-methoxy-4-oxo-7-(4,5,6,7-tetrahydrothieno[3,2-c]pyridin-2-yl)-1,4-dihydro-3-quinolinecarboxylic acid hydrochloride]
3 | 293 to 294 °C | 0.39 µg/mL | 0.2 µg/mL | 0.25 µg/mL | 2 µg/mL | 0.78 µg/mL | 0.78 µg/mL | CC1NCCc2cc(-c3nc4c(cc3F)c(=O)c(C(=O)O)cn4C3CC3)sc21.Cl (centres unmarked) [Example 22, 1-cyclopropyl-6-fluoro-7-(7-methyl-4,5,6,7-tetrahydrothieno(2,3-c)pyridin-2-yl)-4-oxo-1,4-dihydro[1,8]naphthyridine-3-carboxylic acid hydrochloride]
4 | 219 to 222 °C | 0.1 µg/mL | 0.02 µg/mL | 0.06 µg/mL | 0.125 µg/mL | 0.1 µg/mL | 0.2 µg/mL | COc1c(-c2cc3c(s2)CCCC3N)ccc2c(=O)c(C(=O)O)cn(C3CC3)c12.Cl (centres unmarked) [Example 40, 7-(4-amino-4,5,6,7-tetrahydro-1-benzothien-2-yl)-1-cyclopropyl-8-methoxy-4-oxo-1,4-dihydro-3-quinolinecarboxylic acid hydrochloride]
5 | 188 to 189 °C | 0.2 µg/mL | 0.2 µg/mL | 0.06 µg/mL | 0.25 µg/mL | 0.39 µg/mL | 0.2 µg/mL | COc1c(-c2cc3c(s2)CNCC3)ccc2c(=O)c(C(=O)O)cn(C3CC3)c12.Cl [Example 7, 1-cyclopropyl-8-methoxy-4-oxo-7-(4,5,6,7-tetrahydrothieno(2,3-c)pyridin-2-yl)-1,4-dihydro-3-quinolinecarboxylic acid hydrochloride]
